Results from PubChem BioAssay AID1053141 (Broad Institute, 2014).
Records with an inconclusive call do not appear. Calls of active or inactive are those of the source.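 Rule for the calls: active = compounds lowering cell ATP signal, with AC50 no higher than twice their own top valid dose; inconclusive = flat curve with 30 to 70% signal loss, or poor fit; inactive = the rest, including signal rises.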

Tested on: not listed separately
Test: HEK293T cell cytotoxicity, dose response, cytotoxicity control, ATP luminescence, dry powder, set 19 (AID 1053141)
Details: HEK293T viability, CellTiter-Glo ATP luminescence, 72 h; at 26 µM (top of the series)

| Compound | activity change, negative = cytotoxicity |
| --- | --- |
| CO[C@H]1CN(C)C(=O)c2ccc(NC(=O)NC(C)C)cc2OC[C@H](C)N(Cc2ccc(-c3ccccn3)cc2)C[C@@H]1C | -6.54% (inactive) |
| CCCNC(=O)Nc1ccc2c(c1)OC[C@H](C)N(Cc1ccc(-c3ccccn3)cc1)C[C@H](C)[C@@H](OC)CN(C)C2=O | 12.5% (inactive) |
| CCCC(=O)Nc1ccc2c(c1)OC[C@H](C)N(Cc1ccc(-c3ccccn3)cc1)C[C@H](C)[C@@H](OC)CN(C)C2=O | 4.89% (inactive) |
| CO[C@H]1CN(C)C(=O)c2ccc(NC(=O)NC(C)C)cc2OC[C@H](C)N(Cc2ccccc2)C[C@@H]1C | 94.8% (inactive) |
| CCCNC(=O)Nc1ccc2c(c1)OC[C@H](C)N(Cc1ccccc1)C[C@H](C)[C@@H](OC)CN(C)C2=O | 49.2% (inactive) |

Same assay, conditions: HEK293T viability, CellTiter-Glo ATP luminescence, 72 h; at 50 µM (top of the series)

| Compound | activity change, negative = cytotoxicity |
| --- | --- |
| CO[C@H]1CN(C)C(=O)c2cc(NC(=O)NC(C)C)ccc2OC[C@H](C)N(Cc2cccnc2)C[C@@H]1C | 30.5% (inactive) |
| CO[C@H]1CN(C)C(=O)c2cc(NC(=O)NC(C)C)ccc2OC[C@H](C)N(C(=O)c2ccccc2)C[C@@H]1C | 13.8% (inactive) |
| CO[C@H]1CN(C)C(=O)c2cc(NC(=O)NC(C)C)ccc2OC[C@H](C)N(C(=O)c2ccc(-c3ccccn3)cc2)C[C@@H]1C | -14% (inactive) |
| CO[C@H]1CN(C)C(=O)c2cc(NC(=O)NC(C)C)ccc2OC[C@H](C)N(Cc2cncnc2)C[C@@H]1C | 24.6% (inactive) |
| CO[C@H]1CN(C)C(=O)c2cc(NC(=O)NC(C)C)ccc2OC[C@H](C)N(Cc2ccncc2)C[C@@H]1C | -29.6% (inactive) |
| CO[C@H]1CN(C)C(=O)c2cc(NC(=O)NC(C)C)ccc2OC[C@H](C)N(Cc2ccccn2)C[C@@H]1C | 43.7% (inactive) |

Tested on: HEK293T viability, CellTiter-Glo ATP luminescence, 72 h
Test: as above
Details: not given

| Compound | AC50 |
| --- | --- |
| CO[C@H]1CN(C)C(=O)c2cc(NC(=O)NC(C)C)ccc2OC[C@H](C)N(Cc2ccc(F)cc2)C[C@@H]1C | 29.7 µM |
| CO[C@H]1CN(C)C(=O)c2cc(NC(=O)NC(C)C)ccc2OC[C@H](C)N(Cc2ccccc2F)C[C@@H]1C | 27.4 µM |
| CO[C@H]1CN(C)C(=O)c2cc(NC(=O)NC(C)C)ccc2OC[C@H](C)N(C(=O)Nc2ccc(-c3ccccn3)cc2)C[C@@H]1C | > 100 µM (inactive) |
| CO[C@H]1CN(C)C(=O)c2cc(NC(=O)NC(C)C)ccc2OC[C@H](C)N(Cc2ccc(-c3cccnc3)cc2)C[C@@H]1C | 37.7 µM |
| CO[C@H]1CN(C)C(=O)c2cc(NC(=O)C(C)C)ccc2OC[C@H](C)N(Cc2ccc(-c3ccccn3)cc2)C[C@@H]1C | 52.3 µM |
| CO[C@H]1CN(C)C(=O)c2cc(NC(=O)NC(C)C)ccc2OC[C@H](C)NC[C@@H]1C | > 100 µM (inactive) |
| CO[C@H]1CN(C)C(=O)c2cc(Nc3c(NC4CCCC4)c(=O)c3=O)ccc2OC[C@H](C)N(Cc2ccc(-c3ccccn3)cc2)C[C@@H]1C | 13.8 µM |
| CO[C@H]1CN(C)C(=O)c2cc(NC(=O)NC(C)C)ccc2OC[C@H](C)N(Cc2ccccc2)C[C@@H]1C | 44.5 µM |
| CO[C@H]1CN(C)C(=O)c2cc(NC(=O)NC(C)C)ccc2OC[C@H](C)N(Cc2cccc(F)c2)C[C@@H]1C | 35.8 µM |
| CO[C@H]1CN(C)C(=O)c2cc(NC(=O)NC(C)C)ccc2OC[C@H](C)N(Cc2ccc(-c3ccccn3)cc2)C[C@@H]1C | 27 µM |
| CO[C@H]1CN(C)C(=O)c2cc(NC(=O)NC(C)C)ccc2OC[C@H](C)N(Cc2ccc(-c3ccncc3)cc2)C[C@@H]1C | 30.7 µM |
| CO[C@H]1CN(C)C(=O)c2cc(Nc3c(NC4CC4)c(=O)c3=O)ccc2OC[C@H](C)N(Cc2ccc(-c3ccccn3)cc2)C[C@@H]1C | 15 µM |
| CCC(CC)Nc1c(Nc2ccc3c(c2)C(=O)N(C)C[C@H](OC)[C@@H](C)CN(Cc2ccc(-c4ccccn4)cc2)[C@@H](C)CO3)c(=O)c1=O | 39.8 µM |
| CO[C@H]1CN(C)C(=O)c2cc(Nc3ncccn3)ccc2OC[C@H](C)N(Cc2ccc(-c3ccccn3)cc2)C[C@@H]1C | 24.5 µM |
| CCCC(=O)Nc1ccc2c(c1)OC[C@H](C)N(Cc1ccccc1)C[C@H](C)[C@@H](OC)CN(C)C2=O | > 52 µM (inactive) |
